Laboratory results published in patent publication US6399626B1, “Hydroxyesters of 7-desmethylrapamycin” (Wyeth, priority 2000, dated 2002).
Converted amounts (≈) assume the structure as drawn.

What was measured:
Assay type in all cases: cell-based
Aspergillus fumigatus = assay: Antifungal MIC, microtiter broth dilution; details: Aspergillus fumigatus strain ATCC 26933; 35° C., 24-48 hours
Experimental: (§1) The antifungal activity for the hydroxyesters of 7-desmethylrapamycin of this invention was confirmed in a standard pharmacological test procedure which measured the ability of the compound being evaluated to inhibit fungal growth. 7-Desmethylrapamycin 42-ester with 3-hydroxy-2-(hydroxymethyl)-2-methylpropionic acid (Compound I) was evaluated as a representative compound of this invention. The procedure used and results obtained are briefly described below. A 96 U-bottom microtiter plate was filled (50 μl/well) with RPMI 1640. The compounds to be evaluated were placed in appropriate wells, and serial diluted in successive wells to provide 11 dilutions. The concentrations ranged from 64 through 0.06 μg/ml. An adjusted inoculum of fungi (50 μl) was added to each well and the plates were incubated at 35° C. for 24-48 hours. […] Nystatin and amphotericin B were used for the purpose of comparison.

Aspergillus niger = assay: Antifungal MIC, microtiter broth dilution; details: 35° C., 24-48 hours
Experimental: as §1

Candida albicans = assay: Antifungal MIC, microtiter broth dilution; details: 35° C., 24-48 hours
Experimental: as §1

Candida krussii = assay: Antifungal MIC, microtiter broth dilution; details: Candida krussii strain 94-2; 35° C., 24-48 hours
Experimental: as §1

Candida lusitaniae = assay: Antifungal MIC, microtiter broth dilution; details: Candida lusitaniae strain 94-3; 35° C., 24-48 hours
Experimental: as §1

Candida parapsilosis = assay: Antifungal MIC, microtiter broth dilution; details: 35° C., 24-48 hours
Experimental: as §1

Candida pseudotropicalis = assay: Antifungal MIC, microtiter broth dilution; details: Candida pseudotropicalis strain ATCC 28838; 35° C., 24-48 hours
Experimental: as §1

Candida rugosa = assay: Antifungal MIC, microtiter broth dilution; details: Candida rugosa strain 94-10; 35° C., 24-48 hours
Experimental: as §1

Candida tropicalis = assay: Antifungal MIC, microtiter broth dilution; details: 35° C., 24-48 hours
Experimental: as §1

[1] = tested on: U87MG human glioblastoma cells; assay: Inhibition of U87MG human glioblastoma cell growth (3H-thymidine incorporation); details: 48 hours incubation
Experimental: The antineoplastic activity of the compounds of this invention were confirmed in a standard pharmacological test procedure which measures the inhibition of U87MG human glioblastoma cell growth (as a function of ^3H-thymidine incorporation), using 7-desmethylrapamycin 42-ester with 3-hydroxy-2-(hydroxymethyl)-2-methylpropionic acid (Compound I) as are presentative compound of this invention. The following briefly describes the procedure used and results obtained. U87MG human glioblastoma cells (ATCC # HTB-14; available from the American Type Culture Collection; 10801 University Boulevard; Manassas, Va. 20110;), were grown in the following media.
BRL Minimum Essential Medium with Earle Salts (500 mL)
+5 mL BRL MEM Non-Essential Amino Acids (10 mM)
+5 mL BRL Penicillin-Streptomycin (10000 u/mL, 10000 μg/mL)
+5 mL BRL Na Pyruvate Solution (100 mM)
+5 mL BRL L-Glutamine 200 mM
+50 mL BRL Fetal Bovine Serum (Qualified)
1. Cells were trypsinized and plated at a concentration of 10^4 cells/well in a final volume of 200 μL growth medium in 96-well flat bottom plates and allowed to adhere for 24 hours at 37° C.
2. The media was removed by aspiration with care to not disturb the cell monolayer. 200 μL of fresh growth media was added per well, allowing enough wells for samples to be run in triplicate. […]
4. […] Mats were counted in a Wallac Betaplate counter.

[2] = Candida albicans strain ATCC 90028
[3] = Candida parapsilosis strain 94-8
[4] = Candida parapsilosis strain 94-9
[5] = Candida parapsilosis strain ATCC 90018
[6] = Candida tropicalis strain 94-13
[7] = Candida tropicalis strain 94-14

SMILES	ANTIFUNGAL ACTIVITY (MIC) (Aspergillus fumigatus) [µg/mL]	ANTIFUNGAL ACTIVITY (MIC) (Aspergillus niger; Aspergillus niger strain S399) [µg/mL]	ANTIFUNGAL ACTIVITY (MIC) (Aspergillus niger; Aspergillus niger strain S430) [µg/mL]	ANTIFUNGAL ACTIVITY (MIC) (Candida albicans; Candida albicans strain 1063)	ANTIFUNGAL ACTIVITY (MIC) (Candida albicans; Candida albicans strain 1117) [µg/mL]	ANTIFUNGAL ACTIVITY (MIC) (Candida albicans; [2]) [µg/mL]	ANTIFUNGAL ACTIVITY (MIC) (Candida krussii) [µg/mL]	ANTIFUNGAL ACTIVITY (MIC) (Candida lusitaniae)	ANTIFUNGAL ACTIVITY (MIC) (Candida parapsilosis; [3])	ANTIFUNGAL ACTIVITY (MIC) (Candida parapsilosis; [4]) [µg/mL]	ANTIFUNGAL ACTIVITY (MIC) (Candida parapsilosis; [5])	ANTIFUNGAL ACTIVITY (MIC) (Candida pseudotropicalis)	ANTIFUNGAL ACTIVITY (MIC) (Candida rugosa) [µg/mL]	ANTIFUNGAL ACTIVITY (MIC) (Candida tropicalis; [6])	ANTIFUNGAL ACTIVITY (MIC) (Candida tropicalis; [7])	IC50 [1] [µg/mL]
C[C@@H]1[C@H](O)[C@@H](C)/C=C/C=C/C=C/C=C/C=C/C=C/C=C/[C@H](O[C@@H]2O[C@H](C)[C@@H](O)[C@H](N)[C@@H]2O)C[C@@H]2O[C@](O)(C[C@@H](O)C[C@@H](O)[C@H](O)CC[C@@H](O)C[C@@H](O)CC(=O)O[C@H]1C)C[C@H](O)[C@H]2C(=O)O [Amphotericin B, amphotericin B]	0.25	0.50	0.25	≦0.06 μg/mL	0.12	0.12	0.12	≦0.06 μg/mL	≦0.06 μg/mL	0.12	≦0.06 μg/mL	≦0.06 μg/mL	0.25	≦0.06 μg/mL	≦0.06 μg/mL	
CO[C@@H]1C[C@H](C[C@@H](C)[C@@H]2CC(=O)[C@H](C)/C=C(\C)[C@@H](O)[C@@H](OC)C(=O)[C@H](C)C[C@H](C)/C=C/C=C/C=C(\C)[C@@H](O)C[C@@H]3CC[C@@H](C)[C@@](O)(O3)C(=O)C(=O)N3CCCC[C@H]3C(=O)O2)CC[C@H]1OC(=O)C(C)(CO)CO [Compound I, 7-Desmethylrapamycin 42-ester with 3-hydroxy-2-(hydroxymethyl)-2-methylpropionic acid]	64	64	64	1 µg/mL	4	1	0.5	1 µg/mL	2 µg/mL	4	2 µg/mL	2 µg/mL	2	1 µg/mL	1 µg/mL	0.0065 (≈ 6.4 nM)
C[C@@H]1[C@H](O)[C@@H](C)/C=C/C=C/CC/C=C/C=C/C=C/C=C/C(O[C@H]2O[C@H](C)[C@@H](O)[C@H](N)[C@@H]2O)CC2O[C@](O)(CC(O)C(O)CCC(O)CC(O)CC(O)CC(=O)O[C@H]1C)CC(O)C2C(=O)O (stereo partly shown) [Nystatin]	2	2	1	1 µg/mL	1	1	1	1 µg/mL	2 µg/mL	1	2 µg/mL	1 µg/mL	1	1 µg/mL	1 µg/mL	
